Experimental data published in patent US8394786B2, “Quinazoline derivatives” (Janssen Pharmaceutica N.V., priority 2003, dated 2013).

Columns and labels:
SKOV3 cells = test: Serum starved proliferation assay on the ovarian carcinoma SKOV3 cells (C3); assay type: cell-based; details: EGF stimulated (100 ng/ml, 72 hours, serum free) or 72 hours with compounds, MTT cell viability assay; for IC50: Homo sapiens, SK-OV-3, 72 h, read-out: SKOV3 cell (C3): pIC50 (converted)
Summary of the method: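 MTT viability read-out in SKOV3 cells after a 24 h pre-incubation in 10% FCS, in one of two formats. EGF-stimulated version: serum-free compound exposure followed by 100 ng/ml EGF (final) for 72 h at 37 °C, 5% CO2. Otherwise, compound alone for 72 h.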

EGFR = EGFR (Homo sapiens, UniProt P00533); test: In vitro inhibition of EGFR, Flash Plate or glass-fiber filter technology (C2); assay type: biochemical; parameters: 0.5 μg EGFR-kinase domain/well; details: EGFR-kinase domain, 5.0 μM unlabeled ATP; for IC50: read-out: Kinase activity.(C2): pIC50 (converted)
Summary of the method: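 Two radiometric formats were used, each with 5.0 μM unlabeled ATP, [33P]ATP, 0.5 μg EGFR kinase domain and compounds from 1·10^−10 to 1·10^−6 M. Glass-fiber filter: 25° C for 10 min, pH 7.5, Mn2+/Mg2+, acid-stopped, phosphorimager read. Streptavidin Flash Plate: biotinylated poly(GT), pH 8.0, 30° C for 60 min.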

Compound | IC50 (SKOV3 cells) | melting point | IC50 (EGFR) | SKOV3 cell (C3): pIC50 (SKOV3 cells) | Kinase activity.(C2): pIC50 (EGFR)
COc1cc2ncnc3c2cc1OCCCNC(=O)CNCc1cc(F)c(Cl)cc1N3 [Compound 82, 4,6-ethanediylidene-12H-pyrimido[4,5-b][6,1,10,13]benzoxatriazacyclohexadecin-12-one, 18-chloro-17-fluoro-8,9,10,11,13,14,15,20-octahydro-21-methoxy-] | 79.4 nM | 311 to 311.9 °C | 20 nM |  | 
CCN1CC(=O)NCCOc2cc3c(ncnc3cc2OC)Nc2cc(Cl)ccc2C1 [Compound 90, 4,6-ethanediylidenepyrimido[4,5-b][6,1,9,12]benzoxatriazacyclopentadecin-11(8H)-one, 17-chloro-13-ethyl-9,10,12,13,14,19-hexahydro-20-methoxy-] |  | 261.1 to 262 °C |  |  | 
COc1cc2ncnc3c2cc1OCCNC(=O)C1CCCN1Cc1ccc(Cl)cc1N3 (centres unmarked) [Compound 83, 4,6-ethanediylidenepyrimido[4,5-b]pyrrolo[2,1-k][6,1,9,12]benzoxatriazacyclopentadecin-11(8H)-one, 19-chloro-9,10,11a,12,13,14,16,21-octahydro-22-methoxy-] |  | 262 to 262.8 °C | 501 nM | 6.1 | 
COc1cc2ncnc3c2cc1OCCNC(=O)CCNCc1ccc(Cl)cc1N3 [Compound 75, 4,6-ethanediylidene-8H-pyrimido[4,5-b][6,1,9,13]benzoxatriazacyclohexadecin-11(12H)-one, 18-chloro-9,10,13,14,15,20-hexahydro-21-methoxy-] | 6310 nM | 254.4 to 256.5 °C | 63.1 nM |  | 
COc1cc2ncnc3c2cc1OCCNC(=O)C(C(C)C)NC(=O)Cc1ccc(Cl)cc1N3 (centres unmarked) [Compound 66, 4,6-ethanediylidene-8H-pyrimido[4,5-b][6,1,9,12]benzoxatriazacyclohexadecine-11,14-dione, 18-chloro-9,10,12,13,15,20-hexahydro-21-methoxy-12-(1-methylethyl)-] | 10 nM | 335 °C | 79.4 nM |  | 
COc1cc2ncnc3c2cc1OCCCNC(=O)CN(C)Cc1ccc(Cl)cc1N3 [Compound 74, 4,6-ethanediylidene-12H-pyrimido[4,5-b][6,1,10,13]benzoxatriazacyclohexadecin-12-one, 18-chloro-8,9,10,11,13,14,15,20-octahydro-21-methoxy-14-methyl-] | 1000 nM | 240 to 240.3 °C | 25.1 nM |  | 
COc1cc2ncnc3c2cc1OCCNC(=O)C(C)N(C)Cc1ccc(Cl)cc1N3 (centres unmarked) [Compound 89, 4,6-ethanediylidenepyrimido[4,5-b][6,1,9,12]benzoxatriazacyclopentadecin-11(8H)-one, 17-chloro-9,10,12,13,14,19-hexahydro-20-methoxy-12,13-dimethyl-] |  | 265 °C |  |  | 
COc1cc2ncnc3c2cc1OCCCNC(=O)C1CCCN1Cc1ccc(Cl)cc1N3 (centres unmarked) [Compound 84, 4,6-ethanediylidene-12H-pyrimido[4,5-b]pyrrolo[2,1-l][6,1,10,13]benzoxatriazacyclohexadecin-12-one, 20-chloro-8,9,10,11,12a,13,14,15,17,22-decahydro-23-methoxy-] |  | 231.9 to 232.8 °C |  |  | 
COc1cc2ncnc3c2cc1OCCCNC(=O)C1CCCN1Cc1ccc(Cl)cc1N3 (centres unmarked) [Compound 77, 4,6-ethanediylidene-12H-pyrimido[4,5-b]pyrrolo[2,1-l][6,1,10,13]benzoxatriazacyclohexadecin-12-one, 20-chloro-8,9,10,11,12a,13,14,15,17,22-decahydro-23-methoxy-] |  | 129.8 to 132.8 °C |  |  | 
COc1cc2ncnc3c2cc1OCCNC(=O)C1CCN(CC1)Cc1ccc(Cl)cc1N3 [Compound 87, 8H-4,6-ethanediylidene-12,15-ethanopyrimido[4,5-b][6,1,9,14]benzoxatriazacycloheptadecin-11(12H)-one, 19-chloro-9,10,13,14,16,21-hexahydro-24-methoxy-] |  | 246.6 to 248.2 °C |  |  | 
4,6-ethanediylidene-12H-pyrimido[4,5-b]pyrrolo[2,1-1][6,1,10,13]benzoxatriazacyclohexadecin-12-one, 20-chloro-19-fluoro-8,9,10,11,12a,13,14,15,17,22-decahydro-23-methoxy- [Compound 103] |  |  |  | 7.3 | 7.2
COc1cc2ncnc3c2cc1OCCN(C(=O)CN(C)CCN(C)C)CC(=O)NCCCc1ccc(Cl)cc1N3 [Compound 47, 4,6-ethanediylidenepyrimido[4,5-b][6,1,9,12]benzoxatriazacycloheptadecin-12(13H)-one, 19-chloro-10-[[[2-(dimethylamino)ethyl]methylamino]acetyl]-8,9,10,11,14,15,16,21-octahydro-22-methoxy-] | 1580 nM |  | 126 nM |  | 

Next, values leading:

IC50 (SKOV3 cells) | melting point | IC50 (EGFR) | SKOV3 cell (C3): pIC50 (SKOV3 cells) | Kinase activity.(C2): pIC50 (EGFR) | Compound
126 nM | 226.3 to 227.7 °C | 7.94 nM |  |  | COc1cc2ncnc3c2cc1OCCCCNC(=O)C1CCCN1Cc1ccc(Cl)cc1N3 (centres unmarked) [Compound 100, 4,6-ethanediylidenepyrimido[4,5-b]pyrrolo[2,1-m][6,1,11,14]benzoxatriazacycloheptadecin-13(8H)-one, 21-chloro-9,10,11,12,13a, 14,15,16,18,23-decahydro-24-methoxy-]
 | 240.1 to 242.8 °C |  |  |  | COc1cc2ncnc3c2cc1OCCCNC(=O)C1CCCN(Cc2ccc(Cl)cc2N3)C1 (centres unmarked) [Compound 95, 12H-4,6-ethanediylidene-13,17-methanopyrimido[4,5-b][6,1,10,16]benzoxatriazacyclononadecin-12-one, 21-chloro-8,9,10,11,13,14,15,16,18,23-decahydro-25-methoxy-]
39.8 nM | 202.8 to 203.6 °C | 10 nM |  |  | COc1cc2ncnc3c2cc1OCCCNCCN(C)Cc1ccc(Cl)cc1N3 [Compound 114, 4,6-ethanediylidene-8H-pyrimido[4,5-b][6,1,10,13]benzoxatriazacyclohexadecine, 18-chloro-9,10,11,12,13,14,15,20-octahydro-21-methoxy-14-methyl-]
200 nM | 304.6 to 304.8 °C | 25.1 nM |  |  | COc1cc2ncnc3c2cc1OCCCNC(=O)CNCc1ccc(Cl)cc1N3 [Compound 99, 4,6-ethanediylidene-12H-pyrimido[4,5-b][6,1,10,13]benzoxatriazacyclohexadecin-12-one, 18-chloro-8,9,10,11,13,14,15,20-octahydro-21-methoxy-]
 | 276.3 to 277.4 °C |  |  |  | COc1cc2ncnc3c2cc1OCCNC(=O)C(CO)NCc1ccc(Cl)cc1N3 (centres unmarked) [Compound 91, 4,6-ethanediylidenepyrimido[4,5-b][6,1,9,12]benzoxatriazacyclopentadecin-11(8H)-one, 17-chloro-9,10,12,13,14,19-hexahydro-12-(hydroxymethyl)-20-methoxy-]
 | 286.8 to 287.6 °C |  |  |  | COc1cc2ncnc3c2cc1OCCCNC(=O)CN1CCN(CC1)Cc1ccc(Cl)cc1N3 [Compound 93, 4,6-ethanediylidene-14,17-ethanopyrimido[4,5-b][6,1,10,13,16]benzoxatetraazacyclononadecin-12(13H)-one, 21-chloro-8,9,10,11,15,16,18,23-octahydro-26-methoxy-]
1000 nM |  | 3980 nM |  |  | COc1cc2ncnc3c2cc1OCC(=O)NC(C)(C)C(=O)NCCc1ccc(Cl)cc1N3 [Compound 135, 4,6-ethanediylidene-8H-pyrimido[4,5-b][6,1,9,12]benzoxatriazacyclohexadecine-9,12-dione, 18-chloro-10,11,13,14,15,20-hexahydro-21-methoxy-11,11-dimethyl-]
